ChEMBL document CHEMBL1201862, “PubChem BioAssay data set” (2004)
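Five concentrations, 48 hours, 96-well plates. At the GI50, growth is halved.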 Calls of active or inactive are those of the source. Rule as the data show it: active = GI50 up to about 1.1 µM and inactive = higher.

How the values were obtained:
Test in all cases: inhibition of tumour cell growth, NCI panel, 48 h
[1] = system: SF-268
[2] = system: IGROV-1
[3] = system: HOP-92
[4] = system: RXF 393
[5] = system: HOP-62
[6] = system: SW-620
[7] = system: SR
[8] = system: KM-20L2
[9] = system: SK-OV-3
[10] = system: A549
[11] = system: UACC-257
[12] = system: HL-60
[13] = system: TK-10
[14] = system: OVCAR-3
[15] = system: SK-MEL-5
[16] = system: SNB-19
[17] = system: MOLT-4
[18] = system: OVCAR-5
[19] = system: Malme-3M
[20] = system: SNB-75

Measured: GI50

O=C1C(Cl)N(c2ccc([N+](=O)[O-])cc2)C1c1c[nH]c2ccccc12 (stereo not given)
inactive: [1] > 100 µM | [2] 77.6 µM | [3] 83 µM | [4] > 100 µM | [5] > 100 µM | [6] > 100 µM | [7] 19.5 µM | [8] 41.2 µM | [9] 56.6 µM | [10] > 100 µM | [11] 64.1 µM | [12] 31 µM | [13] > 100 µM | [14] 47.8 µM | [15] > 100 µM | [16] > 100 µM | [17] 28.6 µM | [18] > 100 µM | [19] 42.1 µM | [20] > 100 µM

COc1c(O)c(C=O)c2c(O)c(-c3c(C)cc4c(C(C)C)c(OC)c(O)c(C=O)c4c3O)c(C)cc2c1C(C)C [6,6'-METHOXYGOSSYPOL]
inactive: [1] 5.71 µM | [2] 5.47 µM | [3] 2.2 µM | [4] 2.52 µM | [5] 2.98 µM | [6] 5.33 µM | [7] 4.4 µM | [8] 6.01 µM | [9] 4.19 µM | [10] 3.52 µM | [11] 10.9 µM | [12] 4.46 µM | [13] 6.71 µM | [14] 3.37 µM | [15] 9.23 µM | [16] 3.88 µM | [17] 7.53 µM | [18] 7.08 µM | [19] 5.75 µM | [20] 2.4 µM
